Data reported in patent US9737526B2, “Methods for treating Parkinson's disease” (INNOTESTO BVBA, priority 2012, dated 2017).
“And” between values parts separate entries of the source, which are not always exact repeats. Equal entries are not always repeated. Structures can show the parent of a compound that is named as a salt. Where two headings read alike, the source gives them in different places. One block for each molecule: values may come before it.

Experiments:
[1] = Stability experiments using ultraperformance liquid chromatography (UPLC); type: physicochemical
From the text: In stability experiments using ultraperformance liquid chromatography (UPLC) we confirmed that, in accordance with the scientific literature, apomorphine hydrochloride in aqueous solutions is not stable. It is quickly decomposed on storage.

[2] = Solubilities of constituents in non-aqueous solvents; type: physicochemical; details: organic solvent or mixture
Method: In a series of experiments, the solubilities of several constituents that may be used in the solution of the present invention were measured: […]

[3] = system: ciliated respiratory tissue; details: 25% propylene glycol, 15% glycerol, 25% polyethylene glycol 400, 5% povidone in Locke-Ringer solution (WO2005/067893); cited from earlier work
[4] = system: Parkinson's disease subjects; details: cited from earlier work; for time to peak benefit: nine Parkinson's disease subjects
[5] = water; also printed as 1% w/w; cited from earlier work
[6] = system: ciliated respiratory tissue; test: Effect on ciliary beat frequency (CBF) of ciliated tissue, rinsing with Locke-Ringer solution after 15 minutes; type: cell-based; details: for reversibility of effect on CBF: rinsing with LR after 15 minutes
Method: Disclosed are in vitro experiments, according to a previously published method (Merkus et al, 2001), describing the effect of four different solubilizers [25% propylene glycol, 15% glycerol, 25% polyethylene glycol 400 and 5% povidone], dissolved in a Locke-Ringer solution, on the ciliary beat frequency (CBF) of ciliated tissue. […] However, after rinsing with a pure Locke-Ringer solution, the effects on CBF appeared to be completely reversed within 20 minutes.
No ciliary beat frequency could be measured any more. […] Obviously the ciliated cells have been irreversibly damaged by the extreme hyperosmolar concentration of 50% propylene glycol. […] Thus, a nasal formulation containing a drug like apomorphine, dissolved in 50% or more (v/v) propylene glycol, is not a viable option, because it has to be administered in Parkinson's disease on a regular basis, for instance daily or several times per day or per week. On the other hand, such a high concentration of propylene glycol is needed to solubilise sufficient apomorphine (several mg per 0.1 ml) to treat a patient with off-periods in Parkinson's disease.
FIG. 1 is a graph showing the effect of 10% (v/v) propylene glycol (closed circles) or control (open circles) on ciliary beat frequency (CBF) of ciliated respiratory tissue. After 15 minutes contact with 10% (v/v) propylene glycol, tissue is rinsed with pure Locke-Ringer (LR) solution.
FIG. 2 is a graph showing the effect of 25% (v/v) propylene glycol (closed circles) or control (open circles) on ciliary beat frequency (CBF) of ciliated respiratory tissue. After 15 minutes contact with 25% (v/v) propylene glycol, tissue is rinsed with pure Locke-Ringer (LR) solution.
FIG. 3 is a graph showing the effect of 50% (v/v) propylene glycol (closed circles) or control (open circles) on ciliary beat frequency (CBF) of ciliated respiratory tissue. After 15 minutes contact with 50% (v/v) propylene glycol, tissue is rinsed with pure Locke-Ringer (LR) solution.
After 15 minutes contacts with 10% (v/v) propylene glycol, tissue is rinsed with pure Locke-Ringer (LR) solution.
After 15 minute contacts with 25% (v/v) propylene glycol, tissue is rinsed with pure Locke-Ringer (LR) solution.
After 15 minute contacts with 50% (v/v) propylene glycol, tissue is rinsed with pure Locke-Ringer (LR) solution.

[7] = solvent ethanol, read-out: solubility in ethanol
[8] = solvent propylene glycol, read-out: solubility in propylene glycol
[9] = 10% propylene glycol in Locke-Ringer solution, time 0 min
[10] = 10% propylene glycol in Locke-Ringer solution, time 5 min
[11] = 10% propylene glycol in Locke-Ringer solution, time 10 min
[12] = 10% propylene glycol in Locke-Ringer solution, time 15 min
[13] = 10% propylene glycol, time 20 min, after rinsing with LR at 15 min
[14] = 10% propylene glycol, time 30 min, after rinsing with LR at 15 min
[15] = 10% propylene glycol, time 40 min, after rinsing with LR at 15 min
[16] = 10% propylene glycol, time 50 min, after rinsing with LR at 15 min
[17] = 10% propylene glycol, time 60 min, after rinsing with LR at 15 min
[18] = 25% propylene glycol in Locke-Ringer solution, time 0 min
[19] = 25% propylene glycol in Locke-Ringer solution, time 15 min
[20] = 25% propylene glycol, time 20 min, after rinsing with LR at 15 min
[21] = 25% propylene glycol, time 30 min, after rinsing with LR at 15 min
[22] = 25% propylene glycol, time 40 min, after rinsing with LR at 15 min
[23] = 25% propylene glycol, time 50 min, after rinsing with LR at 15 min
[24] = 25% propylene glycol, time 60 min, after rinsing with LR at 15 min
[25] = 50% propylene glycol in Locke-Ringer solution, time 0 min
[26] = 50% propylene glycol in Locke-Ringer solution, time 5 min
[27] = 50% propylene glycol in Locke-Ringer solution, time 10 min
[28] = 50% propylene glycol in Locke-Ringer solution, time 15 min
[29] = 50% propylene glycol, time 20 min, after rinsing with LR at 15 min
[30] = 50% propylene glycol, time 30 min, after rinsing with LR at 15 min
[31] = 50% propylene glycol, time 40 min, after rinsing with LR at 15 min
[32] = 50% propylene glycol, time 50 min, after rinsing with LR at 15 min
[33] = 50% propylene glycol, time 60 min, after rinsing with LR at 15 min

SMILES: CN1CCc2cccc3c2[C@H]1Cc1ccc(O)c(O)c1-3 [Apomorphine HCl]
stability on storage ([1]; aqueous solutions): not stable
stability on storage ([1]; non-aqueous solutions in propylene glycol, compared with aqueous): more stable
solubility ([2]; solvent PEG 400, read-out: solubility in PEG 400): 15 mg/mL
solubility [2, 7]: 20 mg/mL
solubility ([2]; solvent glycerol, read-out: solubility in glycerol): 35 mg/mL
solubility [2, 8]: 80 mg/mL

SMILES: OCC(O)CO [glycerol]
effect on CBF after 15 minutes [3]: strong decrease

SMILES: CN1CCc2cccc3c2[C@H]1Cc1ccc(O)c(O)c1-3 [apomorphine]
time to peak benefit ([4]; 3 mg apomorphine subcutaneous injection): 21 min
time to peak benefit ([4]; 30 mg apomorphine sublingual tablets): > 40 min
stomatitis on chronic use ([4]; chronic use of the sublingual formulation): severe stomatitis in half the subjects
aqueous solubility [5]: about 10 mg/ml

Second part, led by results:

solubility [2, 7]: 20 mg/mL
solubility [2, 8]: 250 mg/mL
SMILES: O=C1NS(=O)(=O)c2ccccc21.[Na] [Saccharin sodium]

reversibility of effect on CBF ([6]; 10% propylene glycol): reversible
reversibility of effect on CBF ([6]; 25% propylene glycol): reversible
cilia activity ([6]; 50% (v/v) propylene glycol, after 5-15 minutes contact): completely arrested
reversibility of effect on CBF ([6]; 50% propylene glycol): not reversible
SMILES: CC(O)CO (stereo not shown) [propylene glycol]
effect on CBF after 15 minutes [3]: strong decrease
CBF (% of initial value), Mean [6, 9]: 100 % of initial value
CBF (% of initial value), single experiments [6, 9]: 100 % of initial value
CBF (% of initial value), Mean [6, 10]: 54 % of initial value
CBF (% of initial value), single experiments [6, 10]: 46 % of initial value and 58 % of initial value and 56 % of initial value and 51 % of initial value and 60 % of initial value
CBF (% of initial value), Mean [6, 11]: 54 % of initial value
CBF (% of initial value), single experiments [6, 11]: 50 % of initial value and 55 % of initial value and 63 % of initial value and 45 % of initial value
CBF (% of initial value), Mean [6, 12]: 50 % of initial value
CBF (% of initial value), single experiments [6, 12]: 57 % of initial value and 52 % of initial value and 43 % of initial value and 51 % of initial value and 45 % of initial value
CBF (% of initial value), Mean [6, 13]: 98 % of initial value
CBF (% of initial value), single experiments [6, 13]: 91 % of initial value and 92 % of initial value and 118 % of initial value and 110 % of initial value and 76 % of initial value
CBF (% of initial value), Mean [6, 14]: 97 % of initial value
CBF (% of initial value), single experiments [6, 14]: 94 % of initial value and 87 % of initial value and 110 % of initial value and 99 % of initial value and 93 % of initial value
CBF (% of initial value), Mean [6, 15]: 96 % of initial value
CBF (% of initial value), single experiments [6, 15]: 84 % of initial value and 91 % of initial value and 109 % of initial value and 102 % of initial value and 93 % of initial value
CBF (% of initial value), Mean [6, 16]: 95 % of initial value
CBF (% of initial value), single experiments [6, 16]: 82 % of initial value and 103 % of initial value and 106 % of initial value and 99 % of initial value and 86 % of initial value
CBF (% of initial value), Mean [6, 17]: 94 % of initial value
CBF (% of initial value), single experiments [6, 17]: 85 % of initial value and 94 % of initial value and 106 % of initial value and 99 % of initial value and 84 % of initial value
CBF (% of initial value), Mean [6, 18]: 100 % of initial value
CBF (% of initial value), single experiments [6, 18]: 100 % of initial value
CBF (% of initial value), Mean ([6]; 25% propylene glycol in Locke-Ringer solution, time 5 min): 11 % of initial value
CBF (% of initial value), Mean ([6]; 25% propylene glycol in Locke-Ringer solution, time 10 min): 3 % of initial value
CBF (% of initial value), Mean [6, 19]: 0 % of initial value
CBF (% of initial value), single experiments [6, 19]: 0 % of initial value
CBF (% of initial value), Mean [6, 20]: 80 % of initial value
CBF (% of initial value), single experiments [6, 20]: 86 % of initial value and 72 % of initial value and 85 % of initial value and 69 % of initial value and 87 % of initial value
CBF (% of initial value), Mean [6, 21]: 86 % of initial value
CBF (% of initial value), single experiments [6, 21]: 68 % of initial value and 101 % of initial value and 83 % of initial value and 89 % of initial value and 94 % of initial value
CBF (% of initial value), Mean [6, 22]: 97 % of initial value
CBF (% of initial value), single experiments [6, 22]: 97 % of initial value and 103 % of initial value and 99 % of initial value and 89 % of initial value and 94 % of initial value
CBF (% of initial value), Mean [6, 23]: 98 % of initial value
CBF (% of initial value), single experiments [6, 23]: 100 % of initial value and 102 % of initial value and 103 % of initial value and 91 % of initial value and 92 % of initial value
CBF (% of initial value), Mean [6, 24]: 97 % of initial value
CBF (% of initial value), single experiments [6, 24]: 102 % of initial value and 103 % of initial value and 94 % of initial value and 91 % of initial value
CBF (% of initial value), Mean [6, 25]: 100 % of initial value
CBF (% of initial value), single experiments [6, 25]: 100 % of initial value
CBF (% of initial value), Mean [6, 26]: 0 % of initial value
CBF (% of initial value), single experiments [6, 26]: 0 % of initial value
CBF (% of initial value), Mean [6, 27]: 0 % of initial value
CBF (% of initial value), single experiments [6, 27]: 0 % of initial value
CBF (% of initial value), Mean [6, 28]: 0 % of initial value
CBF (% of initial value), single experiments [6, 28]: 0 % of initial value
CBF (% of initial value), Mean [6, 29]: 0 % of initial value
CBF (% of initial value), single experiments [6, 29]: 0 % of initial value
CBF (% of initial value), Mean [6, 30]: 0 % of initial value
CBF (% of initial value), single experiments [6, 30]: 0 % of initial value
CBF (% of initial value), Mean [6, 31]: 0 % of initial value
CBF (% of initial value), single experiments [6, 31]: 0 % of initial value
CBF (% of initial value), Mean [6, 32]: 0 % of initial value
CBF (% of initial value), single experiments [6, 32]: 0 % of initial value
CBF (% of initial value), Mean [6, 33]: 0 % of initial value
CBF (% of initial value), single experiments [6, 33]: 0 % of initial value
